Test systems include CAKI-1 renal; COLO 205 colon; HCT-116 colon; HL-60(TB) leukemia; HOP-62 NSCLC; IGROV1 ovarian; OVCAR-3 ovarian; OVCAR-5 ovarian; SK-OV-3 ovarian; UACC-257 melanoma.
Common to all, as to test: NCI anticancer screen, dose series, 48 h

Where “and” joins values, the source holds several entries; their conditions need not be identical. Equal entries are not always repeated.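 Cells were grown in 96-well plates and exposed to each compound for 48 hours at five concentrations; endpoints were interpolated linearly between bracketing concentrations, or set to the highest concentration if not reached. Abbreviation: GI50, concentration required for 50% inhibition of growth. TGI: concentration producing complete growth inhibition.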 Where only a bound is given, the exact number is not on record here.

As to `COc1ccc(C(=O)Cn2c(C(=O)c3ccc(Cl)cc3)nc3ccccc32)cc1`, the GI50 was > 100 µM in the assay on CAKI-1 renal; 37.5 µM in the assay with COLO 205 colon; 2.56 µM in the assay on HCT-116 colon; 3.11 µM in the assay with HL-60(TB) leukemia; 25.7 µM in the assay with IGROV1 ovarian; > 20.3 µM with OVCAR-3 ovarian. The GI50 in the assay on OVCAR-5 ovarian was > 66.3 µM; with SK-OV-3 ovarian, 23.6 µM; in the assay on UACC-257 melanoma, > 100 µM. Moreover, the TGI with CAKI-1 renal is > 100 µM; in the assay on COLO 205 colon, > 100 µM; in the assay with HCT-116 colon it was > 25 µM; with HL-60(TB) leukemia it was > 53.3 µM; in the assay with HOP-62 NSCLC it was > 34.6 µM; in the assay on IGROV1 ovarian, > 100 µM. In addition, the TGI with OVCAR-3 ovarian is > 77.6 µM; in the assay on OVCAR-5 ovarian, > 100 µM; with SK-OV-3 ovarian, > 100 µM; in the assay with UACC-257 melanoma, > 100 µM.
For the compound `O=C(Nc1ccc(-c2nc3cc4ccccc4cc3[nH]2)cc1)c1cccc(Br)c1`, the GI50 was 27.5 µM in the assay with CAKI-1 renal; 8.87 µM in the assay on COLO 205 colon; 3.89 µM with HCT-116 colon; 16.6 µM in the assay with HL-60(TB) leukemia; 7.28 µM in the assay with HOP-62 NSCLC; 15 µM in the assay with IGROV1 ovarian. In addition, the GI50 was 3.64 µM with OVCAR-3 ovarian, 22.6 µM with OVCAR-5 ovarian, 16.3 µM in the assay with SK-OV-3 ovarian and 21 µM in the assay with UACC-257 melanoma. In addition, the TGI in the assay on CAKI-1 renal is 74.8 µM; in the assay on COLO 205 colon it was 40 µM; in the assay on HCT-116 colon it was > 100 µM; with HL-60(TB) leukemia, 48.4 µM; with HOP-62 NSCLC it was 20.4 µM; in the assay on IGROV1 ovarian it was 42.2 µM. Moreover, the TGI with OVCAR-3 ovarian is 10.3 µM; with OVCAR-5 ovarian it was 68.3 µM; in the assay on SK-OV-3 ovarian, 32.8 µM; in the assay on UACC-257 melanoma it was 52.3 µM.
On to `Cc1ccc(NC(c2ccccc2)c2ccc3cccnc3c2O)cc1` (centres undefined), for which the TGI was determined as 16.4 µM in the assay with CAKI-1 renal; 16.5 µM in the assay with COLO 205 colon; 13.8 µM in the assay on HCT-116 colon; 11.7 µM in the assay on HL-60(TB) leukemia; 19.9 µM in the assay on HOP-62 NSCLC; 14 µM with IGROV1 ovarian. Moreover, the TGI amounted to 7.58 µM in the assay on OVCAR-3 ovarian, 22.2 µM in the assay on OVCAR-5 ovarian, 23.8 µM with SK-OV-3 ovarian and 25.8 µM in the assay with UACC-257 melanoma.
Take `C/C(=N\N=C(N)N)C(CN(CC(C)C)CC(C)C)C(=O)Nc1ccc(C)cc1C` (centres undefined): the TGI with CAKI-1 renal, in the assay with COLO 205 colon, with HCT-116 colon, with HL-60(TB) leukemia, in the assay on HOP-62 NSCLC and in the assay on IGROV1 ovarian was > 100 µM in each case. Also, the TGI with OVCAR-3 ovarian, in the assay with OVCAR-5 ovarian, in the assay on SK-OV-3 ovarian and with UACC-257 melanoma was > 100 µM throughout.
For `Cc1[nH]c(=O)[nH]c(=O)c1N(CCF)CCCl`, the GI50 was 137 µM in the assay with CAKI-1 renal; 337 µM in the assay on COLO 205 colon; 243 µM and 491 µM in the assay with HCT-116 colon; 42.6 µM with HL-60(TB) leukemia; 439 µM with HOP-62 NSCLC; 284 µM with IGROV1 ovarian. For the same compound, the GI50 was 147 µM and 530 µM in the assay with OVCAR-3 ovarian; 329 µM and 400 µM in the assay with OVCAR-5 ovarian; 332 µM and 472 µM in the assay with SK-OV-3 ovarian; 228 µM with UACC-257 melanoma. Also, the TGI with CAKI-1 renal was 634 µM and 711 µM; with COLO 205 colon it was 930 µM and 805 µM; with HCT-116 colon, 662 µM and 1570 µM and 1010 µM; in the assay on HL-60(TB) leukemia, 246 µM and 302 µM and 219 µM; in the assay with HOP-62 NSCLC, 872 µM and 1100 µM and 1150 µM; with IGROV1 ovarian, 793 µM and 1260 µM and 1270 µM. Besides, the TGI in the assay on OVCAR-3 ovarian was 356 µM and 1350 µM and 972 µM; in the assay on OVCAR-5 ovarian, 676 µM and 976 µM and 1200 µM; in the assay with SK-OV-3 ovarian, 741 µM and 1330 µM and 1240 µM; in the assay with UACC-257 melanoma, 465 µM and 1070 µM and 855 µM.
On to `C=C1C(=O)O[C@@H]2C[C@@H]1CC[C@]1(C)O[C@H]1CC[C@@]1(C)O[C@@H]1CC[C@@]2(C)O`, for which the GI50 with CAKI-1 renal was 27.3 µM; in the assay with COLO 205 colon it was 16.4 µM; in the assay with HCT-116 colon, 23.1 µM; with HL-60(TB) leukemia it was 15.2 µM; in the assay on HOP-62 NSCLC, 75.8 µM; with IGROV1 ovarian it was 24.3 µM. In addition, the GI50 in the assay on OVCAR-3 ovarian was 16.2 µM; in the assay with OVCAR-5 ovarian, 29.2 µM; with SK-OV-3 ovarian, > 100 µM; with UACC-257 melanoma it was 61.9 µM. In addition, the TGI with CAKI-1 renal was 79.9 µM; in the assay on COLO 205 colon it was 34.2 µM; in the assay on HCT-116 colon, 65.9 µM; in the assay with HL-60(TB) leukemia it was 46.5 µM; in the assay with HOP-62 NSCLC, > 100 µM; in the assay on IGROV1 ovarian it was > 100 µM. The TGI in the assay on OVCAR-3 ovarian is 51.9 µM; in the assay with OVCAR-5 ovarian it was > 100 µM; with SK-OV-3 ovarian, > 100 µM; in the assay with UACC-257 melanoma, > 100 µM.
As for `O=C(O)c1ccc(S(=O)(=O)c2ccccc2)c([N+](=O)[O-])c1`, the TGI in the assay with CAKI-1 renal, in the assay with COLO 205 colon, in the assay on HCT-116 colon, in the assay on HL-60(TB) leukemia, in the assay on HOP-62 NSCLC and in the assay with IGROV1 ovarian was > 100 µM in each case. The TGI in the assay with OVCAR-3 ovarian, in the assay with OVCAR-5 ovarian, in the assay with SK-OV-3 ovarian and in the assay on UACC-257 melanoma was > 100 µM throughout.
As for `O=C(O)c1ccc(NC(=O)C2C(=O)C(=O)N(c3ccc(C(=O)O)cc3)C2=O)cc1` (centres undefined), the TGI with CAKI-1 renal, in the assay on COLO 205 colon, in the assay on HCT-116 colon, in the assay with HL-60(TB) leukemia, in the assay on HOP-62 NSCLC and in the assay on IGROV1 ovarian was > 100 µM each time. Besides, the TGI with OVCAR-3 ovarian, with OVCAR-5 ovarian, in the assay with SK-OV-3 ovarian and with UACC-257 melanoma was > 100 µM throughout.
As to `COc1cccc(-c2nn(-c3ccccc3)cc2-c2ccnc(NCCNS(=O)(=O)c3ccc(Cl)cc3)c2)c1`, the GI50 in the assay on CAKI-1 renal was 5.61 µM; in the assay with COLO 205 colon, 3.33 µM; with HCT-116 colon it was 4.63 µM; with HL-60(TB) leukemia, 2.56 µM; with HOP-62 NSCLC, 13.5 µM; in the assay on IGROV1 ovarian it was 6.63 µM. For the same compound, the GI50 was 4.32 µM in the assay with OVCAR-3 ovarian, > 100 µM in the assay on OVCAR-5 ovarian, 4.43 µM in the assay with SK-OV-3 ovarian and 7.03 µM in the assay on UACC-257 melanoma. Besides, the TGI in the assay on CAKI-1 renal is > 100 µM; with COLO 205 colon it was 14.7 µM; with HCT-116 colon it was > 100 µM; in the assay on HL-60(TB) leukemia, 17.9 µM; with HOP-62 NSCLC it was > 100 µM; in the assay with IGROV1 ovarian, > 100 µM. Also, the TGI in the assay with OVCAR-3 ovarian was > 100 µM; with OVCAR-5 ovarian, > 100 µM; in the assay with SK-OV-3 ovarian, > 100 µM; in the assay with UACC-257 melanoma, 44.9 µM.

The record behind these values is PubChem BioAssay (NCI).
